How the values were obtained:
[1] = Oral pharmacokinetic study; format: in vivo, Sprague Dawley rats
Procedure: Rats were fasted overnight before the start of the experiments and randomly divided into two experimental groups. […] Pharmacokinetic parameters were analyzed using non-compartmental techniques with WinNonlin® 5.0 software (Pharsight Corporation, Mountain View, CA, USA). SHAM analysis (i.e., Slope, Height, Area, and Moment) utilized plasma concentration-time data to estimate the area under the curve (AUC), apparent terminal elimination rate constant (λz), terminal elimination half-life (t1/2) and the area under the first moment of the plasma concentration–time curve (AUMC). The AUC was calculated for each rat using the piecewise log trapezoidal areas and extrapolated to infinity by dividing λz into the last measured plasma concentration (i.e. Clast/λz). From the values of AUC0_0-∞ and AUMC0-∞, the clearance (CL), mean residence time (MRT) and volume of distribution at tissue equilibrium (Vss) were calculated based on noncompartmental monoexponential assumptions as: CL = Dose/AUC, MRT≅AUMC/AUC and Vss = CL×MRT. The noncompartmental parameters were calculated for each rat before averaging dose groups. The pharmacokinetic parameters such as AUC, Cmax, t1/2, tmax, MRT, etc were compared between the free drug and SD formulations.

VEGF = assay: Quantification of VEGF by ELISA; format: in vivo, athymic Nu/nu mice
Procedure: VEGF levels were estimated in plasma, tumor tissue homogenates by ELISA method. Tumors were homogenized in RIPA lysis buffer (20 mM Tris-HCl pH 7.5, 150 mM NaCl, 1% Triton X-100) containing proteinase inhibitors (Complete Proteinase Inhibitor Cocktail Tablets, Roche, Indianapolis. IN). Tissue debris was pelleted and the resulting supernatant was used in subsequent analysis. Total protein concentration was determined with a BCA protein assay (Pierce, Rockford, IL). VEGF concentrations were determined according to the manufacturer's instructions. A minimum of 3 tumors per group were analyzed in duplicate.

cleaved caspase 3 = assay: IHC analysis of orthotopic lung tumor sections; format: in vivo, athymic Nu/nu mice; conditions: A549 tumors
Description: (§1) Formalin fixed tumors were processed for automatic histopathological procedures. The detailed procedure was provided in Data S1 [30].
(§2) C) IHC for cleaved caspase 3 and CD31: Formalin fixed tumors were processed for automatic histopathological procedures. The detailed procedure was provided in supplmmentary data (Supple). Tissue sections were dehydrated by immersing in increasing concentrations of alcohol and embedded in paraffin. Paraffin embedded specimens were cut into thin sections (4-5 µm). Tissue sections (4–5 μm thick) were mounted on poly-L-lysine–coated slides and sections were deparaffinized with xylene and rehydration through graded concentrations of alcohol, then incubated with 3% […] for 20 min to block endogenous peroxidase activity. Antigen retrieval for cleaved caspase 3 and CD31 staining was carried out for 10 min in 0.01 M sodium citrate buffer (pH 6), heated at 95°C in a steam bath followed by cooling for 30 min. Endogenous peroxidase was blocked by 3% hydrogen peroxide in PBS for 10 min. The slides were washed with PBS and incubated for 1h at room temperature with a protein blocking solution. […] Numbers of positive cells per filed was quantified by counting 10 different fields from each section. Based on the CD31 positive cells, microvessel density (MVD) was calculated (30).

[2] = design: method as in PMID 17531424; conditions: single oral dose of 400 mg ref 20; cited from earlier work
[3] = system: TUNEL positive apoptotic cells; assay: TUNEL assay on orthotopic lung tumor sections; format: in vivo, athymic Nu/nu mice
Procedure: Terminal deoxynucleotidyl transferase-mediated dUTP nick end labeling (TUNEL) assay was used to study the DNA fragmentation or apoptosis detection. TUNEL assay was performed on 4–5 µm thick sections as per the kit manual. Formalin-fixed tumor tissues were embedded in paraffin and sectioned ([…]). DeadEndTM Colorimetric Apoptosis Detection System (Promega, Madison, WI) allows the recognition of apoptotic nuclei in paraffin-embedded tissue sections fixed on slides according to the manufacturer's protocol. Briefly, the equilibration buffer was added to slides and incubated for 10 minutes followed by 10-minute incubation in […] proteinase K solution. The sections were washed in PBS and incubated with TdT enzyme at 37°C for 1 h in a humidified chamber for incorporation of biotinylated nucleotides at the 3-OH ends of DNA. The slides were incubated in horseradish peroxidase-labeled streptavidin to bind the biotinylated nucleotides followed by detection with stable chromagen DAB. The images on the slides were visualized with an Olympus BX40 light microscope equipped with a computer-controlled digital camera (DP71, Olympus Center Valley, PA, USA). Three slides per group were stained and apoptotic cells were identified by dark brown […] staining.

CD31 = assay: IHC analysis of orthotopic lung tumor sections (microvessel density); format: in vivo, athymic Nu/nu mice; conditions: A549 tumors; CD31 positive cells
Description: as §1, §2

[4] = In vitro drug release of BBR (USP type II paddle); format: physicochemical; conditions: after 5 h; PBS pH 5.8 with 1% volpo, 37°C
Procedure: In vitro drug release study was conducted in PBS (pH 5.8) containing 1% volpo. Briefly, 50 mg of free drug or equivalent amount of SD form of BBR and BA were dispersed in 500 ml of release medium and the drug release profile was studied at pH 5.8. Release studies were performed according to the USP type II paddle method, at 37±0.5°C while stirring constantly at 50 rpm. Samples were withdrawn at different time points, centrifuged and drug content in the samples was analyzed by spectrometric method of analysis. The withdrawn samples were replaced by equal volumes of fresh medium maintained at the same temperature. Except replacing the 1% Volpo with 2.5% SLS, similar conditions were maintained for the in vitro drug release studies of BA in free drug and SD forms. The released BA concentrations were measured by established HPLC method.

[5] = In vitro Caco-2 permeability study; conditions: human, Caco-2, pH 5.8
Procedure: Caco-2 cells (passage #29) were cultured at 37°C with culture medium replaced every 2 days in an atmosphere of 5% CO2 and 95% relative humidity. Cells were harvested upon reaching approximately 80-90% confluence with 0.25% trypsin–EDTA. Cells were grown on 1.12 cm^2 0.4 μm pore polycarbonate membrane inserts in 12 mm × 12 transwell permeable support plates (Corning, NY, USA). Caco-2 cells were seeded onto membranes at 50,000 cells/well. Individual wells received 1.5 mL of culture medium at the bottom and 0.5 mL of medium was added to the top of inserts which was changed on alternate days. Confluent monolayers were used for permeability studies at ~21 days post seeding. Transepithelial electrical resistance (TEER) of Caco-2 monolayers was measured prior to all experiments using the EVOM volt-ohm-meter (Millicell-ERS; Millipore, USA) to ensure monolayer integrity. The TEER (Ω·cm^2) values of the cell monolayers were determined by the resistance (Ω) × effective membrane area (cm^2). TEER values were measured across each cell monolayer prior to beginning the experimentation and at the last sample collection time point. Transport studies were initiated by removing culture medium from the apical (A) and basolateral (B) sides of the cell monolayer. […] The effective permeability (Peff) (cm/s) was determined using Eq. 1: […]

[6] = Sprague Dawley, rat, plasma, po, 100 mg/kg orally

COc1ccc2cc3[n+](cc2c1OC)CCc1cc2c(cc1-3)OCO2.[Cl-] [BBR free drug, 5,6-dihydro-9,10-dimethoxy-benzo[g]-1,3-benzodioxolo[5,6-a]quinolizinium, chloride]
CL ([1]; 100 mg/kg orally): 2.034 ± 0.2813 mL/min/kg
AUMC (0-∞) ([1]; BBR, 100 mg/kg orally): 5619.03±651.24 ng.h^2/ml
Vss ([1]; BBR, 100 mg/kg orally): 1.04839 ± 0.10635 L/kg
half-life ([1]; Sprague Dawley, rat, plasma, po, 100 mg/kg, read-out: t½ (converted)): 5.95 ± 0.47 h
MRT [1, 6]: 6.85 ± 1.68 h
Tmax [1, 6]: 1.41 ± 0.67 h
AUC(0-inf) ([1]; Sprague Dawley, rat, plasma, po, BBR, 100 mg/kg orally): 819 ± 82 ng·h/mL
Cmax ([1]; Sprague Dawley, rat, po, BBR, 100 mg/kg orally, plasma): 147 ± 21.8 ng/mL
VEGF levels in tumor lysates (VEGF; untreated control 284.71±42.84): 137.59±20.84 pg/mg protein
VEGF levels in serum (VEGF; untreated control 597.90±54.03): 315.41 ± 44.06 pg/mL
number of cleaved caspase 3 positive apoptotic cells, higher compared to control (cleaved caspase 3): 4.20 fold
Cmax in human plasma [2]: 0.4 ng/mL
increase in TUNEL positive apoptotic cells compared to control tumors [3]: 2.74 fold
microvessel density (MVD) reduced compared to untreated control tumors (CD31): 1.44 fold
percent of BBR released [4]: Approximately 100%
Papp A→B at 120 min, 100 µM [5]: ~0.29 ×10⁻⁶ cm/s

Source: PMC3948684, “Approaches to Improve the Oral Bioavailability and Effects of Novel Anticancer Drugs Berberine and Betulinic Acid” (PLoS ONE, 2014)
